Laboratory results as given in US10035790B2, “RORγ modulators” (BRISTOL-MYERS SQUIBB COMPANY, priority 2012, dated 2018).

Target: T1, ligand binding domain of human RORγ (A262-S507) (Homo sapiens, UniProt P51449)
T1 construct: made in house; host or cells: E. coli
T1 sequence (P51449 262-507): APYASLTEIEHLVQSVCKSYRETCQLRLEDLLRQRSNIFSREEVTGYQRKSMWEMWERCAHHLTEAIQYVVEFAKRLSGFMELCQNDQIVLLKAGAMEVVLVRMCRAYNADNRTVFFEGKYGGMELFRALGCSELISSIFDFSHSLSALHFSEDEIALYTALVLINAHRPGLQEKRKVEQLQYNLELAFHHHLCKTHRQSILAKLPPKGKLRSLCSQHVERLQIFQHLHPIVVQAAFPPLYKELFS
Assay: General RORγ SPA binding assay (competition with [3H]25-hydroxycholesterol)
Conditions: RORγ SPA binding assay, inhibition of [3H]25-hydroxycholesterol binding; read-out: IC50
How it was run: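 N-terminally His-tagged protein was expressed in E. coli and nickel-purified. Then 50 nM protein was preincubated with compound for 15 min at room temperature in PBS with 0.5% fatty acid free BSA, followed by radioligand for 15 min and copper His-tag SPA beads for 30 min. IC50 came from percent inhibition of binding.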

Q: `Cc1nc(C)c(-c2nnc(-c3ccnc(C(F)(F)F)n3)o2)c(C2CCN(C(=O)Cc3ccccc3F)CC2)n1` [Compound C25, 1-(4-(2,6-dimethyl-5-(5-(2-(trifluoromethyl)pyrimidin-4-yl)-1,3,4-oxadiazol-2-yl)pyrimidin-4-yl)piperidin-1-yl)-2-(2-fluorophenyl)ethanone] was tested. Which IC50 did it give?
A: 23.1 nM

Q: Which IC50 does the source give for `Cc1nc(C)c(-c2nnc(-c3ccnc(C(F)(F)F)n3)o2)c(C2CCN(C(=O)C(C)c3c(F)cccc3F)CC2)n1` (stereo not shown) [Compound C26, 2-(2,6-difluorophenyl)-1-(4-(2,6-dimethyl-5-(5-(2-(trifluoromethyl)pyrimidin-4-yl)-1,3,4-oxadiazol-2-yl)pyrimidin-4-yl)piperidin-1-yl)propan-1-one] here?
A: 235 nM

Q: `Cc1nc(C)c(-c2nnc(-c3ccnc(C(F)(F)F)n3)o2)c(C2CCN(C(=O)c3c(F)cccc3Cl)CC2)n1` [Compound C27, (2-chloro-6-fluorophenyl)(4-(2,6-dimethyl-5-(5-(2-(trifluoromethyl)pyrimidin-4-yl)-1,3,4-oxadiazol-2-yl)pyrimidin-4-yl)piperidin-1-yl)methanone] was tested. Which IC50 did it give?
A: 461 nM

Q: `Cc1nc(C)c(-c2nnc(-c3ccnc(C(F)(F)F)n3)o2)c(C2CCN(C(=O)Nc3c(F)cccc3F)CC2)n1` [Compound C28, N-(2,6-Difluorophenyl)-4-(2,6-dimethyl-5-{5-[2-(trifluoromethyl)pyrimidin-4-yl]-1,3,4-oxadiazol-2-yl}pyrimidin-4-yl)piperidine-1-carboxamide] was tested. Which IC50 did it give?
A: 65.2 nM

Q: Which IC50 does the source give for `Cc1nc(C)c(-c2nnc(-c3ccnc(C(F)(F)F)n3)o2)c(C2CCN(C(=O)Nc3ccccc3Cl)CC2)n1` [Compound C29, N-(2-chlorophenyl)-4-(2,6-dimethyl-5-{5-[2-(trifluoromethyl)pyrimidin-4-yl]-1,3,4-oxadiazol-2-yl}pyrimidin-4-yl)piperidine-1-carboxamide] here?
A: 158 nM

Q: `Cc1nc(C)c(-c2nnc(-c3ccnc(C(F)(F)F)n3)o2)c(C2CCN(C(=O)Nc3ccccc3C(F)(F)F)CC2)n1` [Compound C30, 4-(2,6-dimethyl-5-{5-[2-(trifluoromethyl)pyrimidin-4-yl]-1,3,4-oxadiazol-2-yl}pyrimidin-4-yl)-N-[2-(trifluoromethyl)phenyl]piperidine-1-carboxamide] was tested. Which IC50 did it give?
A: 49.7 nM

Q: For `Cc1nc(C)c(-c2nnc(-c3ccnc(C(F)(F)F)n3)o2)c(C2CCN(C(=O)Nc3c(Cl)cccc3Cl)CC2)n1` [Compound C31, N-(2,6-dichlorophenyl)-4-(2,6-dimethyl-5-{5-[2-(trifluoromethyl)pyrimidin-4-yl]-1,3,4-oxadiazol-2-yl}pyrimidin-4-yl)piperidine-1-carboxamide], which IC50 is on record?
A: 49.6 nM

Q: How did the IC50 turn out when `Cc1nc(C)c(-c2nnc(-c3ccnc(C(F)(F)F)n3)o2)c(C2CCN(C(=O)Nc3ccccc3OC(F)(F)F)CC2)n1` [Compound C32, 4-(2,6-dimethyl-5-{5-[2-(trifluoromethyl)pyrimidin-4-yl]-1,3,4-oxadiazol-2-yl}pyrimidin-4-yl)-N-{2-[(trifluoromethyl)oxy]phenyl}piperidine-1-carboxamide] was run?
A: 159 nM

Q: How did the IC50 turn out when `Cc1nc(C)c(-c2nnc(-c3ccnc(C(F)(F)F)n3)o2)c(C2CCN(S(=O)(=O)c3c(F)cccc3F)CC2)n1` [Compound C33, 4-{1-[(2,6-Difluorophenyl)sulfonyl]piperidin-4-yl}-2,6-dimethyl-5-{5-[2-(trifluoromethyl)pyrimidin-4-yl]-1,3,4-oxadiazol-2-yl}pyrimidine] was run?
A: 844 nM

Q: Which IC50 does the source give for `Cc1nc(C)c(-c2nnc(-c3ccnc(C(F)(F)F)n3)o2)c(C2CCN(S(=O)(=O)Cc3ccccc3F)CC2)n1` [Compound C34, 4-(1-{[(2-Fluorophenyl)methyl]sulfonyl}piperidin-4-yl)-2,6-dimethyl-5-{5-[2-(trifluoromethyl)pyrimidin-4-yl]-1,3,4-oxadiazol-2-yl}pyrimidine] here?
A: 87.1 nM

Q: How did the IC50 turn out when `Cc1nc(C)c(-c2nnc(-c3ccnc(C(F)(F)F)n3)o2)c(C2CCN(C(=O)[C@H](C)c3c(F)cccc3F)CC2)n1` [Compound C35, (R)-2-(2,6-Difluorophenyl)-1-(4-(2,6-dimethyl-5-(5-(2-(trifluoromethyl)pyrimidin-4-yl)-1,3,4-oxadiazol-2-yl)pyrimidin-4-yl)piperidin-1-yl)propan-1-one] was run?
A: 608 nM

Q: Which IC50 does the source give for `Cc1nc(C)c(-c2nnc(-c3ccnc(C(F)(F)F)n3)o2)c(C2CCN(C(=O)N(C)c3c(F)cccc3F)CC2)n1` [Compound C36, N-(2,6-Difluorophenyl)-4-(2,6-dimethyl-5-(5-(2-(trifluoromethyl)pyrimidin-4-yl)-1,3,4-oxadiazol-2-yl)pyrimidin-4-yl)-N-methylpiperidine-1-carboxamide] here?
A: 155 nM

Q: With `[2H]C([2H])c1nc(C)c(-c2nnc(-c3ccnc(C(F)(F)F)n3)o2)c(C2CCN(C(=O)C([2H])c3c(F)cccc3F)CC2)n1` (stereo not shown) [Compound C37, 4-{1-[(2,6-Difluorophenyl)acetyl-2-d]piperidin-4-yl}-2-methyl-d2-6-methyl-5-{5-[2-(trifluoromethyl)pyrimidin-4-yl]-1,3,4-oxadiazol-2-yl}pyrimidine] as the molecule, how does the IC50 read?
A: 22.1 nM

Q: `[2H]C([2H])(C(=O)N1CCC(c2nc(C)nc(C)c2-c2nnc(-c3ccnc(C(F)(F)F)n3)o2)CC1)c1c(F)cccc1F` [Compound C38, 4-{1-[(2,6-Difluorophenyl)acetyl-2,2-d2]piperidin-4-yl}-2,6-dimethyl-5-{5-[2-(trifluoromethyl)pyrimidin-4-yl]-1,3,4-oxadiazol-2-yl}pyrimidine] was tested. Which IC50 did it give?
A: 8 nM

Q: With `Cc1nc(C)c(-c2nnc(-c3ccnc(C(F)(F)F)n3)s2)c(C2CCN(C(=S)Cc3c(F)cccc3F)CC2)n1` [Compound C39, 4-{1-[2-(2,6-Difluorophenyl)ethanethioyl]piperidin-4-yl}-2,6-dimethyl-5-{5-[2-(trifluoromethyl)pyrimidin-4-yl]-1,3,4-thiadiazol-2-yl}pyrimidine] as the molecule, how does the IC50 read?
A: 4520 nM

Q: With `Cc1nc(C)c(-c2nnc(-c3ccnc(C(F)(F)F)n3)o2)c(C2CCN(C(=O)Nc3c(F)cccc3C(F)(F)F)CC2)n1` [Compound C40, 4-(2,6-Dimethyl-5-{5-[2-(trifluoromethyl)pyrimidin-4-yl]-1,3,4-oxadiazol-2-yl}pyrimidin-4-yl)-N-[2-fluoro-6-(trifluoromethyl)phenyl]piperidine-1-carboxamide] as the molecule, how does the IC50 read?
A: 47.5 nM

Q: How did the IC50 turn out when `Cc1nc(C)c(-c2nnc(-c3ccnc(C(F)(F)F)n3)o2)c(C2CCN(C(=O)Cc3ccccc3Cl)CC2)n1` [Compound C41, 4-{1-[(2-Chlorophenyl)acetyl]piperidin-4-yl}-2,6-dimethyl-5-{5-[2-(trifluoromethyl)pyrimidin-4-yl]-1,3,4-oxadiazol-2-yl}pyrimidine] was run?
A: 20.5 nM

Q: For `Cc1nc(C)c(-c2nnc(-c3ccnc(C(F)(F)F)n3)o2)c(C2CCN(C(=O)Cc3ncccc3Cl)CC2)n1` [Compound C42, 4-{1-[(3-Chloropyridin-2-yl)acetyl]piperidin-4-yl}-2,6-dimethyl-5-{5-[2-(trifluoromethyl)pyrimidin-4-yl]-1,3,4-oxadiazol-2-yl}pyrimidine], which IC50 is on record?
A: 240 nM

Q: Which IC50 does the source give for `Cc1nc(C)c(-c2nnc(-c3ccnc(C(F)(F)F)n3)o2)c(C2CCN(C(=O)C(F)(F)c3c(F)cccc3F)CC2)n1` [Compound C43, 4-{1-[(2,6-difluorophenyl)(difluoro)acetyl]piperidin-4-yl}-2,6-dimethyl-5-{5-[2-(trifluoromethyl)pyrimidin-4-yl]-1,3,4-oxadiazol-2-yl}pyrimidine] here?
A: 11.2 nM

Q: How did the IC50 turn out when `Cc1nc(C)c(-c2nnc(-c3ccnc(C(F)(F)F)n3)o2)c(C2CCN(C(=O)C(F)(F)c3ccccc3F)CC2)n1` [Compound C44, 4-{1-[Difluoro(2-fluorophenyl)acetyl]piperidin-4-yl}-2,6-dimethyl-5-{5-[2-(trifluoromethyl)pyrimidin-4-yl]-1,3,4-oxadiazol-2-yl}pyrimidine] was run?
A: 3.2 nM

Q: For `Cc1nc(C)c(-c2nnc(-c3ccnc(C(F)(F)F)n3)o2)c(C2CCN(C(=O)Oc3ccccc3Cl)CC2)n1` [Compound C45, 2-Chlorophenyl 4-(2,6-dimethyl-5-{5-[2-(trifluoromethyl)pyrimidin-4-yl]-1,3,4-oxadiazol-2-yl}pyrimidin-4-yl)piperidine-1-carboxylate], which IC50 is on record?
A: 42.8 nM

Q: `Cc1nc(C)c(-c2nnc(-c3ccnc(C(F)(F)F)n3)o2)c(C2CCN(C(=S)Nc3c(F)cccc3F)CC2)n1` [Compound C46, N-(2,6-Difluorophenyl)-4-(2,6-dimethyl-5-{5-[2-(trifluoromethyl)pyrimidin-4-yl]-1,3,4-oxadiazol-2-yl}pyrimidin-4-yl)piperidine-1-carbothioamide] was tested. Which IC50 did it give?
A: 123 nM

Q: For `Cc1nc(C)c(-c2nnc(-c3ccnc(C(F)(F)F)n3)o2)c(C2CCN(C(=S)Nc3ccccc3C(F)(F)F)CC2)n1` [Compound C47, 4-(2,6-Dimethyl-5-{5-[2-(trifluoromethyl)pyrimidin-4-yl]-1,3,4-oxadiazol-2-yl}pyrimidin-4-yl)-N-[2-(trifluoromethyl)phenyl]piperidine-1-carbothioamide], which IC50 is on record?
A: 80.6 nM

Q: With `Cc1nc(N)nc(C2CCN(C(=O)Nc3c(F)cccc3F)CC2)c1-c1nnc(-c2ccnc(C(F)(F)F)n2)o1` [Compound C48, 4-(2-Amino-6-methyl-5-{5-[2-(trifluoromethyl)pyrimidin-4-yl]-1,3,4-oxadiazol-2-yl}pyrimidin-4-yl)-N-(2,6-difluorophenyl)piperidine-1-carboxamide] as the molecule, how does the IC50 read?
A: 63.9 nM

Q: Which IC50 does the source give for `Cc1nc(N)nc(C2CCN(C(=O)Nc3c(F)cccc3C(F)(F)F)CC2)c1-c1nnc(-c2ccnc(C(F)(F)F)n2)o1` [Compound C49, 4-(2-Amino-6-methyl-5-{5-[2-(trifluoromethyl)pyrimidin-4-yl]-1,3,4-oxadiazol-2-yl}pyrimidin-4-yl)-N-[2-fluoro-6-(trifluoromethyl)phenyl]piperidine-1-carboxamide] here?
A: 23.3 nM
